According to the kinase profiling compilation of Christmann-Franck et al. (2016):

Legend:
Assay in all cases: radiometric filter-binding kinase assay
CSNK1D (human) = CSNK1D (human) (UniProt P48730)
RPS6KA1 KD1 KD2 (human) = RPS6KA1 KD1 KD2 (human) (UniProt Q15418)
RIPK2 (human) = RIPK2 (human) (UniProt O43353)
JAK2 JH1 JH2 (human) = JAK2 JH1 JH2 (human) (UniProt O60674)
MAP3K1 (human) = MAP3K1 (human) (UniProt Q13233); conditions: compound 0.01 µM
BTK (human) = BTK (human) (UniProt Q06187)
RPS6KA5 KD1 KD2 (human) = RPS6KA5 KD1 KD2 (human) (UniProt O75582)
MARK3 (human) = MARK3 (human) (UniProt P27448)
PRKCA (human) = PRKCA (human) (UniProt P17252)
[1] = target: STK11 CAB39 STRADA (human) (UniProt Q9Y376+Q7RTN6+Q15831)
YES1 (human) = YES1 (human) (UniProt P07947)
AURKA (human) = AURKA (human) (UniProt O14965)
HIPK1 (human) = HIPK1 (human) (UniProt Q86Z02)
MAPKAPK3 (human) = MAPKAPK3 (human) (UniProt Q16644)
[2] = test system: AKT2 (human), P31751 [S474D]
MAP3K9 (human) = MAP3K9 (human) (UniProt P80192)
FLT1 (human) = FLT1 (human) (UniProt P17948)
MARK4 (human) = MARK4 (human) (UniProt Q96L34)
MAPK11 (human) = MAPK11 (human) (UniProt Q15759)
[3] = test system: RPS6KB1 (human), P23443 [T412E]
NEK2 (human) = NEK2 (human) (UniProt P51955)
INSR (human) = INSR (human) (UniProt P06213)
NTRK1 (human) = NTRK1 (human) (UniProt P04629)
CLK2 (human) = CLK2 (human) (UniProt P49760)
MAPK15 (human) = MAPK15 (human) (UniProt Q8TD08)
INSRR (human) = INSRR (human) (UniProt P14616)
NEK6 (human) = NEK6 (human) (UniProt Q9HC98)
MAPK1 (human) = MAPK1 (human) (UniProt P28482)
IRAK4 (human) = IRAK4 (human) (UniProt Q9NWZ3)
MAPK14 (human) = MAPK14 (human) (UniProt Q16539)
SRPK1 (human) = SRPK1 (human) (UniProt Q96SB4)
CSNK2A1 (human) = CSNK2A1 (human) (UniProt P68400)
MKNK2 (human) = MKNK2 (human) (UniProt Q9HBH9)
DYRK2 (human) = DYRK2 (human) (UniProt Q92630)
Chain of DYRK2 (human) (Q92630 whole entry, looked up): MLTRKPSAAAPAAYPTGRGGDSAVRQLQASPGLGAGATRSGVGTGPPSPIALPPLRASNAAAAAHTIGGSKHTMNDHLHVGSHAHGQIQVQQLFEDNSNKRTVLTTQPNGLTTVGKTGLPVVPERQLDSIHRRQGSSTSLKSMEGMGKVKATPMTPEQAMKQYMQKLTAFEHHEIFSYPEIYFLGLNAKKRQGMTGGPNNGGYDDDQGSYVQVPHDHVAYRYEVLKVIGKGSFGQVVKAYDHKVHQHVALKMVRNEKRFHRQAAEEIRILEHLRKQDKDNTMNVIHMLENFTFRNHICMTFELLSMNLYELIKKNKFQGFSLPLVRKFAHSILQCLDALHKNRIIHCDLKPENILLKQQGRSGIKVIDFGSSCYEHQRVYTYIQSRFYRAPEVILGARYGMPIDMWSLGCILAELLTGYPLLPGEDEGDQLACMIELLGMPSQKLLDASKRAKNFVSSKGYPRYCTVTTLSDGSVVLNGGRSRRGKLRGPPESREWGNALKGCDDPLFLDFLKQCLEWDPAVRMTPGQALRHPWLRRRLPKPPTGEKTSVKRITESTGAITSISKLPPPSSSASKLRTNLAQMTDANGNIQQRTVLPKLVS

Chain of IRAK4 (human) (Q9NWZ3 whole entry, looked up): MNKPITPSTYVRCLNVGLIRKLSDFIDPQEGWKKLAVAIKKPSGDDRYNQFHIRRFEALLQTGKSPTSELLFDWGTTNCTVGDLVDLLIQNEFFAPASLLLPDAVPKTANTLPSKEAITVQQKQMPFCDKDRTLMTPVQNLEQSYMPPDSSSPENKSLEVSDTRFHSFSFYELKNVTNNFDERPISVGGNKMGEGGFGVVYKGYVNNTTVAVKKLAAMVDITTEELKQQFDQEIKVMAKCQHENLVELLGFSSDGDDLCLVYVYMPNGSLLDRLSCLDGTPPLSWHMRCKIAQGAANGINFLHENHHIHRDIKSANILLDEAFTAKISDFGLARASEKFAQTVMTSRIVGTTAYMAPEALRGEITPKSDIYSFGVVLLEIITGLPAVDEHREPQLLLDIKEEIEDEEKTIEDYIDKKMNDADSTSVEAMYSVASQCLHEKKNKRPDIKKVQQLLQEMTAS
Chain of MAPK11 (human) (Q15759 whole entry, looked up): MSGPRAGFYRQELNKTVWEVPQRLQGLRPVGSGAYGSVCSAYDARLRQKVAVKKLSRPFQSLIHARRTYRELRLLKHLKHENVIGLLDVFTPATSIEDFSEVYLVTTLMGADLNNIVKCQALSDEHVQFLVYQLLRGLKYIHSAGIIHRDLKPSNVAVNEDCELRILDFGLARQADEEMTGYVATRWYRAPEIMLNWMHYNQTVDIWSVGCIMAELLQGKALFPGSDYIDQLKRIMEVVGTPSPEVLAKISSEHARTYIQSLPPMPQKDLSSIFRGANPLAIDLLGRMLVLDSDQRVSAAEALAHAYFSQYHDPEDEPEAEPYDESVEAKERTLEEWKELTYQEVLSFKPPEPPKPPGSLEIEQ
Chain of AKT2 (human), P31751 [S474D] (P31751 whole entry S474D, looked up): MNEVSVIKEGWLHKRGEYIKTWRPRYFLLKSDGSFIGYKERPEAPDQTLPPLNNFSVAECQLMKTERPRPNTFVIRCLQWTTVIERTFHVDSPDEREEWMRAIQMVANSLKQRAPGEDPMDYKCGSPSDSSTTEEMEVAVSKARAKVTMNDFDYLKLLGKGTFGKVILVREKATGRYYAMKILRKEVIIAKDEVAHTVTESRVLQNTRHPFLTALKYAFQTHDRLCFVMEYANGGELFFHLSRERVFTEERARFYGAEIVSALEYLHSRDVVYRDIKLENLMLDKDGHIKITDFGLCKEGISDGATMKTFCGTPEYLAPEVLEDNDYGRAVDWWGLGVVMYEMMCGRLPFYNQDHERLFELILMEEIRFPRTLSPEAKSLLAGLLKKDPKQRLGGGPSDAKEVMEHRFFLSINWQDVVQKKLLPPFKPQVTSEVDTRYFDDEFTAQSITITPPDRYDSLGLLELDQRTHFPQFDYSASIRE
Chain of MAPK1 (human) (P28482 whole entry, looked up): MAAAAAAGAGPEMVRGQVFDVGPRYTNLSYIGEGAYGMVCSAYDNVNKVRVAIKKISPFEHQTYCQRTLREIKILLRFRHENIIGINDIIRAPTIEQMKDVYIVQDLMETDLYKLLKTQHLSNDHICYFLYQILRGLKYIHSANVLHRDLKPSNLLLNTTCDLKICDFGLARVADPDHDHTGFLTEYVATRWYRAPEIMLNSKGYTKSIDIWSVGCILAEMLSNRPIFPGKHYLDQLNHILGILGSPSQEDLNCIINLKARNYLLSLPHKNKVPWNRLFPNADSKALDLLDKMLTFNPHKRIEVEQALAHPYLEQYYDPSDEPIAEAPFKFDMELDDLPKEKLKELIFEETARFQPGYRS
Chain of MAPK15 (human) (Q8TD08 whole entry, looked up): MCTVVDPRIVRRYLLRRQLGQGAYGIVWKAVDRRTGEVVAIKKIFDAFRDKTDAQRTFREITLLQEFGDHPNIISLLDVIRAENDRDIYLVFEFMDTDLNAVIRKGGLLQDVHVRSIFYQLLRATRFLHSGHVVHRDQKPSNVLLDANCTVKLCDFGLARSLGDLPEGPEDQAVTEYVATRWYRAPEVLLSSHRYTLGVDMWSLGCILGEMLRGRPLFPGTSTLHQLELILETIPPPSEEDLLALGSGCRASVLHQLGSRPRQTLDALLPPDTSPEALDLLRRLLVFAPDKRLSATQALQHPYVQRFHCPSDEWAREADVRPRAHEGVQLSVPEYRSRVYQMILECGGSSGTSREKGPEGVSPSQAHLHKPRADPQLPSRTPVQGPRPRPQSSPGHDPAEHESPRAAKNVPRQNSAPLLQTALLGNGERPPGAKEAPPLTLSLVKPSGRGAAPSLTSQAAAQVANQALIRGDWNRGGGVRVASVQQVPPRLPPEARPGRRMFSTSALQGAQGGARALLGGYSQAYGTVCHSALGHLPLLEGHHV
Chain of NEK6 (human) (Q9HC98 whole entry, looked up): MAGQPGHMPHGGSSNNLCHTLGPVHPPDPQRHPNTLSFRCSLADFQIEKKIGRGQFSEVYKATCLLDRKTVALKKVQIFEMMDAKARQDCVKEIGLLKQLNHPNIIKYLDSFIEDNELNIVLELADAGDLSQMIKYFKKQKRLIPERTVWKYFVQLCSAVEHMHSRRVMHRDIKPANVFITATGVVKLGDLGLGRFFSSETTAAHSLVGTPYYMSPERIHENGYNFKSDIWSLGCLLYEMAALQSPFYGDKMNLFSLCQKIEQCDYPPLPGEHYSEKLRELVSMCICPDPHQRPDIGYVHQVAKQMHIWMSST
Chain of RIPK2 (human) (O43353 whole entry, looked up): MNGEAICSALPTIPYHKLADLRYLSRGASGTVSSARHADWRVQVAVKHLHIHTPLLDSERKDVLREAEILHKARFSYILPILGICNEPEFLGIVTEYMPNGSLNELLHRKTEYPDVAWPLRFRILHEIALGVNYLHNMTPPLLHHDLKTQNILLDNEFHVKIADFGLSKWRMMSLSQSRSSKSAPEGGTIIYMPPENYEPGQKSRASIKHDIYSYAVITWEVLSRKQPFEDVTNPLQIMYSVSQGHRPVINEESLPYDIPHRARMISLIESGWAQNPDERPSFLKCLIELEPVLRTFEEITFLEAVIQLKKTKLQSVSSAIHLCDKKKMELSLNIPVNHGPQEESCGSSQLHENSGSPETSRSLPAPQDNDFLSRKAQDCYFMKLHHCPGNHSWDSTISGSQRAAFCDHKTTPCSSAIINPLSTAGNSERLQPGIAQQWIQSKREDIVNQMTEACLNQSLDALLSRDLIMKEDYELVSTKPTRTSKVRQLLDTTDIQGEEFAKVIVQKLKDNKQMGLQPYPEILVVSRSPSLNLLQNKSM
Chain of CSNK2A1 (human) (P68400 whole entry, looked up): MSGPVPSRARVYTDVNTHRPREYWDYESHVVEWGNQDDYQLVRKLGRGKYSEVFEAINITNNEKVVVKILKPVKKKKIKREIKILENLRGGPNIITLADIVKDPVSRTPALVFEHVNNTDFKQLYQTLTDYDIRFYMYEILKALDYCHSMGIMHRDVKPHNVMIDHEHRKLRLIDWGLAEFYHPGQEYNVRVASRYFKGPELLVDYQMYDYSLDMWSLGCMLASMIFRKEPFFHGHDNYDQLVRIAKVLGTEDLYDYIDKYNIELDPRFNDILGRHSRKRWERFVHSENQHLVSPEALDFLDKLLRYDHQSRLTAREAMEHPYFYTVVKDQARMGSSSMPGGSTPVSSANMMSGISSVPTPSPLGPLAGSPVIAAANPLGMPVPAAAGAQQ
Chain of SRPK1 (human) (Q96SB4 whole entry, looked up): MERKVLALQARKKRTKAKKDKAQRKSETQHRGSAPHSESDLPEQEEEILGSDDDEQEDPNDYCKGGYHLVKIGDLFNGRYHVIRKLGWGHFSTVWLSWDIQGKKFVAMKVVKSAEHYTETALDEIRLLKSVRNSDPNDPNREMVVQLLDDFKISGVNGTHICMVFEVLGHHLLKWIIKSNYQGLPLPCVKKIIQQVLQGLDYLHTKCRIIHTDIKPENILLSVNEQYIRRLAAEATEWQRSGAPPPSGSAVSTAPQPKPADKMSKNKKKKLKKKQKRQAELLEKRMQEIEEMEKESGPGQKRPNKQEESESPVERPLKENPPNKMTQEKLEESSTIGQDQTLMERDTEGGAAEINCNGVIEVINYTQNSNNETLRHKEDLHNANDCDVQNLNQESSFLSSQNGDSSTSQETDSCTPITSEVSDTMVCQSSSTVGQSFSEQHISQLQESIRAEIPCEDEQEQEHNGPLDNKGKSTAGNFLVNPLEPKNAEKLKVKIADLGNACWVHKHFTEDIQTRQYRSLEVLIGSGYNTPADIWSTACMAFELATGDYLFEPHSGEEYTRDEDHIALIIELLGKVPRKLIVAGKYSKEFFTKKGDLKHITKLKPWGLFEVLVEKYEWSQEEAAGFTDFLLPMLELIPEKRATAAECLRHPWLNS

residual activity (CSNK1D (human); compound 0.01 µM): 89%
residual activity (CSNK1D (human); compound 0.1 µM): 85%
residual activity (CSNK1D (human); compound 1.0 µM): 79%
residual activity (RPS6KA1 KD1 KD2 (human); compound 0.01 µM): 106%
residual activity (RPS6KA1 KD1 KD2 (human); compound 0.1 µM): 91%
residual activity (RPS6KA1 KD1 KD2 (human); compound 1.0 µM): 38%
residual activity (RIPK2 (human); compound 0.01 µM): 77%
residual activity (RIPK2 (human); compound 0.1 µM): 37%
residual activity (RIPK2 (human); compound 1.0 µM): 8%
residual activity (JAK2 JH1 JH2 (human); compound 0.01 µM): 99%
residual activity (JAK2 JH1 JH2 (human); compound 0.1 µM): 88%
residual activity (JAK2 JH1 JH2 (human); compound 1.0 µM): 89%
residual activity (MAP3K1 (human)): 94%
residual activity (BTK (human); compound 0.01 µM): 91%
residual activity (BTK (human); compound 0.1 µM): 38%
residual activity (BTK (human); compound 1.0 µM): 21%
residual activity (RPS6KA5 KD1 KD2 (human); compound 0.01 µM): 104%
residual activity (RPS6KA5 KD1 KD2 (human); compound 0.1 µM): 105%
residual activity (MARK3 (human); compound 0.01 µM): 92%
residual activity (MARK3 (human); compound 0.1 µM): 73%
residual activity (MARK3 (human); compound 1.0 µM): 28%
residual activity (PRKCA (human); compound 0.01 µM): 102%
residual activity (PRKCA (human); compound 0.1 µM): 102%
residual activity (PRKCA (human); compound 1.0 µM): 104%
residual activity ([1]; compound 0.01 µM): 108%
residual activity ([1]; compound 0.1 µM): 106%
residual activity ([1]; compound 1.0 µM): 96%
residual activity (YES1 (human); compound 0.01 µM): 34%
residual activity (YES1 (human); compound 0.1 µM): 11%
residual activity (YES1 (human); compound 1.0 µM): 8%
residual activity (AURKA (human); compound 0.01 µM): 98%
residual activity (AURKA (human); compound 0.1 µM): 91%
residual activity (AURKA (human); compound 1.0 µM): 70%
residual activity (HIPK1 (human); compound 0.01 µM): 69%
residual activity (HIPK1 (human); compound 0.1 µM): 60%
residual activity (HIPK1 (human); compound 1.0 µM): 56%
residual activity (MAPKAPK3 (human); compound 0.01 µM): 96%
residual activity (MAPKAPK3 (human); compound 0.1 µM): 90%
residual activity (MAPKAPK3 (human); compound 1.0 µM): 75%
residual activity ([2]; compound 0.01 µM): 83%
residual activity ([2]; compound 0.1 µM): 83%
residual activity ([2]; compound 1.0 µM): 75%
residual activity (MAP3K9 (human); compound 0.01 µM): 101%
residual activity (MAP3K9 (human); compound 0.1 µM): 97%
residual activity (MAP3K9 (human); compound 1.0 µM): 42%
residual activity (FLT1 (human); compound 0.01 µM): 95%
residual activity (FLT1 (human); compound 0.1 µM): 64%
residual activity (FLT1 (human); compound 1.0 µM): 15%
residual activity (MARK4 (human); compound 0.01 µM): 120%
residual activity (MARK4 (human); compound 0.1 µM): 101%
residual activity (MARK4 (human); compound 1.0 µM): 67%
residual activity (MAPK11 (human); compound 0.01 µM): 89%
residual activity (MAPK11 (human); compound 0.1 µM): 42%
residual activity (MAPK11 (human); compound 1.0 µM): 19%
residual activity ([3]; compound 0.01 µM): 88%
residual activity ([3]; compound 0.1 µM): 99%
residual activity ([3]; compound 1.0 µM): 93%
residual activity (NEK2 (human); compound 0.01 µM): 112%
residual activity (NEK2 (human); compound 0.1 µM): 93%
residual activity (NEK2 (human); compound 1.0 µM): 95%
residual activity (INSR (human); compound 0.01 µM): 115%
residual activity (INSR (human); compound 0.1 µM): 106%
residual activity (INSR (human); compound 1.0 µM): 106%
residual activity (NTRK1 (human); compound 0.01 µM): 98%
residual activity (NTRK1 (human); compound 1.0 µM): 89%
residual activity (CLK2 (human); compound 0.01 µM): 97%
residual activity (CLK2 (human); compound 0.1 µM): 100%
residual activity (CLK2 (human); compound 1.0 µM): 108%
residual activity (INSRR (human); compound 0.01 µM): 113%
residual activity (INSRR (human); compound 0.1 µM): 112%
residual activity (INSRR (human); compound 1.0 µM): 107%
residual activity (NEK6 (human); compound 0.01 µM): 102%
residual activity (NEK6 (human); compound 0.1 µM): 90%
residual activity (NEK6 (human); compound 1.0 µM): 91%
residual activity (MAPK1 (human); compound 0.01 µM): 103%
residual activity (MAPK1 (human); compound 0.1 µM): 110%
residual activity (MAPK1 (human); compound 1.0 µM): 109%
residual activity (IRAK4 (human); compound 0.01 µM): 90%
residual activity (IRAK4 (human); compound 0.1 µM): 97%
residual activity (IRAK4 (human); compound 1.0 µM): 90%
residual activity (MAPK14 (human); compound 0.01 µM): 121%
residual activity (MAPK14 (human); compound 0.1 µM): 79%
residual activity (MAPK14 (human); compound 1.0 µM): 26%
residual activity (SRPK1 (human); compound 0.01 µM): 96%
residual activity (SRPK1 (human); compound 0.1 µM): 85%
residual activity (SRPK1 (human); compound 1.0 µM): 90%
residual activity (CSNK2A1 (human); compound 0.01 µM): 98%
residual activity (CSNK2A1 (human); compound 0.1 µM): 100%
residual activity (CSNK2A1 (human); compound 1.0 µM): 100%
residual activity (MKNK2 (human); compound 0.01 µM): 107%
residual activity (MKNK2 (human); compound 0.1 µM): 107%
residual activity (MKNK2 (human); compound 1.0 µM): 102%
residual activity (DYRK2 (human); compound 0.01 µM): 89%
residual activity (DYRK2 (human); compound 0.1 µM): 85%
residual activity (DYRK2 (human); compound 1.0 µM): 93%
SMILES: COc1ccc(N(C(=O)Nc2c(C)cccc2C)c2cc(Nc3ccc(N4CCN(C)CC4)cc3)ncn2)c(OC)c1
residual activity (MAPK15 (human); compound 0.01 µM): 108%
residual activity (MAPK15 (human); compound 0.1 µM): 112%
residual activity (MAPK15 (human); compound 1.0 µM): 94%
